≈ marks a conversion by molar mass, not a printed value.
Legend:
[1] = test system: Anopheles gambiae; experiment: Insecticidal in Anopheles gambiae G3 assessed as lethal concentration fed with compound treated human blood at 150 microg/kg administered once; assay type: functional; details: dose 150 µg/kg
[2] = test system: Culex pipiens; experiment: Insecticidal in Culex pipiens larvae measured after 48 hrs; assay type: functional
[3] = test system: Anopheles stephensi; experiment: Insecticidal in Anopheles stephensi larvae measured after 48 hrs; assay type: functional
[4] = test system: Aedes aegypti; experiment: Insecticidal in Aedes aegypti larvae measured after 48 hrs; assay type: functional
[5] = test system: Huh-7; experiment: Antimalarial activity against liver stage Plasmodium berghei infected in human Huh-7 cells assessed as inhibition by bioluminescence assay; assay type: functional, cell-based
[6] = test system: Anopheles gambiae; experiment: Insecticidal in Anopheles gambiae G3 assessed as sublethal dose re-blood fed on human arm; assay type: functional
[7] = test system: Plasmodium vivax; experiment: Antimalarial activity against Plasmodium vivax assessed as inhibition of sporogony in Anopheles sp. mosquito fed with blood containing plasma isolated from compound treated parasite-infected human observed after 7 days; assay type: functional, organism-based
[8] = test system: Plasmodium falciparum; experiment: Antimalarial activity against asexual blood stage chloroquine-resistant Plasmodium falciparum Dd2 assessed as parasite growth inhibition by SYBR Green staining based fluorescence analysis; assay type: functional, organism-based
[9] = test system: Plasmodium falciparum; experiment: Antimalarial activity against asexual blood stage mefloquine-resistant Plasmodium falciparum Dd2 assessed as parasite growth inhibition by SYBR Green staining based fluorescence analysis; assay type: functional, organism-based
[10] = test system: Plasmodium falciparum; experiment: Antimalarial activity against asexual blood stage chloroquine-sensitive Plasmodium falciparum 3d7 assessed as parasite growth inhibition by SYBR Green staining based fluorescence analysis; assay type: functional, organism-based
[11] = Antimalarial activity against Plasmodium cynomolgi infected in rhesus macaque hepatocytes assessed as inhibition of liver-stage schizonts by Giemsa staining based microscopic analysis; assay type: functional, cell-based, Macaca mulatta; details: hepatocyte
[12] = test system: Plasmodium falciparum; experiment: Antimalarial activity against asexual blood stage Plasmodium falciparum assessed as parasite growth inhibition incubated for 72 hrs by HRP2 - ELISA; assay type: functional, organism-based
[13] = test system: Plasmodium falciparum; experiment: Antimalarial activity against Plasmodium falciparum late stage IV-V gametocytes assessed as parasite growth inhibition incubated for 48 hrs by BacTiterGlo assay; assay type: functional, organism-based
[14] = test system: Huh-7; experiment: Antiplasmodial activity against liver stage Plasmodium berghei infected in human Huh-7 cells assessed as inhibition of parasite infection incubated for 48 hrs by bioluminescence assay; assay type: functional, cell-based
[15] = test system: Plasmodium falciparum; experiment: Antiplasmodial activity against asexual blood stage Plasmodium falciparum 3d7 assessed as parasite growth inhibition incubated for 48 hrs by bioluminescence assay; assay type: functional, organism-based

## C=C(C)[C@H]1C(=O)c2c3c(cc4c5c(n1c24)C[C@@]1(C)C5CC[C@H]2[C@](C)(/C=C/C=C(\C)C(=O)NC(C)(C)C)[C@@H](O)CC[C@@]21C)C1=CC(C)(C)OC(C)(C)C1[C@@H]3O (some centres not stated)
[1]
  LC50: 0.76 µg/mL (≈ 1.03 µM)

## CO[C@H]1C[C@H](O[C@H]2[C@H](C)O[C@@H](O[C@@H]3/C(C)=C/C[C@@H]4C[C@@H](C[C@]5(C=C[C@H](C)[C@@H](C(C)C)O5)O4)OC(=O)[C@@H]4C=C(C)[C@@H](O)[C@H]5OC/C(=C\C=C\[C@@H]3C)[C@]54O)C[C@@H]2OC)O[C@@H](C)[C@@H]1O [ABAMECTIN COMPONENT B1B]
[2]
  LC50: 2.42 ppb
[3]
  LC50: 2.9 ppb
[4]
  LC50: 10.4 ppb

## COc1cc(NC(C)CCCN)c2ncccc2c1 (configuration not stated) [PRIMAQUINE]
[5]; Homo sapiens, Huh-7
  IC50: 2400 nM

## CCN(Cc1ccc(Cl)nc1)/C(=C/[N+](=O)[O-])NC [NITENPYRAM]
[1]
  LC50: 0.111 µg/mL (≈ 0.41 µM)
[6]
  LC25: 0.07865 µg/mL (≈ 0.291 µM)

## IVERMECTIN
[7]
  IC50: 0.00568 µg/mL
[8]
  IC50: 2850 nM
[9]
  IC50: 1920 nM
[10]
  IC50: 1560 nM
[5]; huh-7
  IC50: 2100 nM
[11]
  IC50: 10400 nM
[12]
  IC50: 100 nM
[13]
  IC50: 500 nM
[14]
  IC50: 2100 nM
[15]
  IC50: 1560 nM
